Data taken from patent US20180110740A1, “METHODS AND MATERIALS FOR TREATING ENDOMETRIOSIS” (Mayo Foundation for Medical Education and Research, priority 2015, published 2018).

What was measured:
CYP3A4 = CYP3A4 promoter, expression and activity in Ishikawa cells (reporter assay, qPCR, western blot, specific substrate assay); type: cell-based; conditions: Dioxin 0.1-10 nM
Experimental: (§1) Ishikawa cells were treated with Dioxin (0.1-10 nM) and KLF11 or EV-control. Treatment effects were determined on CYP3A4, a well-characterized CYP450 gene that is also an endometrial estrogen metabolizing enzyme. Promoter and gene expression were determined by reporter assay, qPCR, and western blot. CYP3A4 activity was determined by a specific substrate assay. Promoter histone code was evaluated by ChIP in Ishikawa treated with Dioxin and Histone Acetyl Transferase Inhibitor (HATI) or controls. The Dioxin-endometriosis model was created per published protocols in wild type mice gavaged with Dioxin (3 μg/kg) or vehicle. Animals were additionally treated 0.2 μg/gm/day of HATI or vehicle control (N=10/grp). Disease progression was evaluated in 12 weeks by morphometry, IHC, and qPCR.

[1] = test system: endometriotic progression; experiment: Dioxin-endometriosis model in wild type mice; type: in vivo; conditions: wild type mice gavaged with Dioxin 3 μg/kg, HATI 0.2 μg/gm/day or vehicle
Experimental: as §1

endometriotic lesions = experiment: Endometriotic lesion model: autologous uterine segments implanted onto the peritoneum of Klf11-/- or wt mice; type: in vivo; conditions: wt animals; 50 μg/g of body weight; evaluated three weeks after treatment; vs DMSO
Experimental: FIG. 4 is a schematic diagram showing the design of the mouse endometriosis model. Two 0.5 cm uterine fragments are everted, so that the endometrium faces the peritonel cavity. These are then sutured to the flank peritoneum on either side by 8/0 proline microfilament suture.
FIG. 5 contains photographs of Klf11^-/- and wt animals induced to produce endometriosis lesions and treated with DMSO (control), garcinol (0.2 μg/g of body weight, or suberoyl anilide hydroxamic acid (SAHA; 50 μg/g of body weight). SAHA is also known as N-hydroxy-N′-phenyl-octanediamide or vorinostat. Endometriotic progression was evaluated three weeks after treatment. The arrows point to and define lesion associated scarring.
In another experiment, endometriotic lesions were induced in Klf11^-/- or wildtype (wt) mice (n=10 for each group) by implanting autologous 5 mm uterine segments onto the peritoneum (FIGS. 3 and 4). […] In addition, COL1A1 polypeptide expression was increased in implants from Klf11^-/- animals (FIGS. 3D and 3H) as compared to those from wt animals (FIGS. 3C and 3G).

SMILES | CYP3A4 activation (CYP3A4) | lesional CYP3A4 expression ([1]; 12 weeks) | Score ([1]; 12 weeks, P<0.05) | endometriotic disease progression ([1]; evaluated in 12 weeks by morphometry, IHC, qPCR) | fibrosis (endometriotic lesions)
Clc1cc2c(cc1Cl)Oc1cc(Cl)c(Cl)cc1O2 [Dioxin, 2,3,7,8-tetrachlorodibenzodioxin] | dose-dependently activated | lesional epithelial CYP3A4 activation | 26.4 | prolific endometriotic progression | 
O=C(CCCCCCC(=O)Nc1ccccc1)NO [SAHA, N-hydroxy-N′-phenyl-octanediamide] |  |  |  |  | induction of de novo fibrosis
